Assay results: PubChem BioAssay AID624474 (Sanford-Burnham Center for Chemical Genomics, 2012)

target: Protein skinhead-1 (Caenorhabditis elegans) (UniProt P34707); assay: SKN-1 inhibitor hit potency, dose response, fluorescence ratio readout (AID 624474); settings: SKN-1 inhibitor fluorescence ratio assay
Sequence (P34707 whole entry, looked up): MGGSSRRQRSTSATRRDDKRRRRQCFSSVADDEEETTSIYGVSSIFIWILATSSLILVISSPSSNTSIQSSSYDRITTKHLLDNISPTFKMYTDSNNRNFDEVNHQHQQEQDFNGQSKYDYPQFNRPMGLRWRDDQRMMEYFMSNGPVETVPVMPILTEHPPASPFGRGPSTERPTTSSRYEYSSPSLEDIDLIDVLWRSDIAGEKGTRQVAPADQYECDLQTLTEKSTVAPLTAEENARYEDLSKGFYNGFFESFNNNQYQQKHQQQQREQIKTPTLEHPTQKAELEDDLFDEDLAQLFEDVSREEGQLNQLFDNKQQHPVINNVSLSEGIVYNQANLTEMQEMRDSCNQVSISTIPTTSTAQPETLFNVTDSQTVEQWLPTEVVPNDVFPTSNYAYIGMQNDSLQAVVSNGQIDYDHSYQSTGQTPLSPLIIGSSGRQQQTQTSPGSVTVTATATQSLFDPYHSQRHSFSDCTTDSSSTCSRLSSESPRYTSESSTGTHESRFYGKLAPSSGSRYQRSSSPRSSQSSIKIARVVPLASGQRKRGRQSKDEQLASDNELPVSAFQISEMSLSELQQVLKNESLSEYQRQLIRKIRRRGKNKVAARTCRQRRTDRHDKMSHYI

IC50 | SMILES
9.41 µM | O=C(/C=C/c1ccc(Br)cc1)c1ccc(NC2=NCCCS2)cc1
19.5 µM | COc1cc(CNC(C)(C)CO)cc(Br)c1OCc1ccc(Cl)cc1
13.9 µM | Brc1ccc(-c2nnc(-c3ccco3)o2)cc1
30.6 µM | Clc1ccc(Cn2cc(Br)cn2)cc1Cl
